Test results as given in patent US12534493B2, “Bridged nucleoside and nucleotide” (Liid Pharmaceuticals, Inc., priority 2020, dated 2026).

Legend:
Assay type in all cases: binding
[1] = system: single-stranded DNA: 5′-d(ACGAGAACATCC)-3′ (SEQ ID NO: 12); test: Melting temperature (Tm) measurement, double strand-forming ability, with single-stranded DNA; conditions: duplex with single-stranded DNA SEQ ID NO: 12; for Tm: 10 mM phosphate buffer (pH7.0), 200 mM NaCl, 2.5 μM each oligonucleotide; for ΔTm/mod.: change per modification vs natural oligonucleotide
Method: (§1) A sample solution ([…]) with final concentrations of 10 mM phosphate buffer (pH7.0), 200 mM sodium chloride, and 2.5 μM each oligonucleotide was immersed in boiling water and slowly cooled to room temperature. The sample solution was cooled to 20° C., and the measurement was started. The temperature was raised to 90° C. at a rate of 0.5° C. per minute, and the absorbance at 260 nm was plotted at intervals of 0.5° C. All Tm values were calculated by the midline method and the average of three independent measurement results was taken.
(§2) conditions: 10 mM sodium phosphate buffer (pH7.0) containing 200 mM NaCl, […] of each strand

[2] = system: single-stranded RNA:5′-r(ACGAGANCAUCC)-3′, N = G; test: Tm measurement with single-stranded RNA (base sequence identifying ability), N = G; conditions: mismatch RNA N = G; for ΔTm (N = G), in parentheses: difference from N = A; for Tm (N = G): 10 mM sodium phosphate buffer, 200 mM NaCl
Method: as §1, §2

[3] = system: single-stranded RNA: 5′-r(ACGAGAACAUCC)-3′ (SEQ ID NO: 11); test: Melting temperature (Tm) measurement, double strand-forming ability, with single-stranded RNA; conditions: for Tm (N = A): Table 2, full-match RNA N = A, 10 mM sodium phosphate buffer; for Tm (N = A) / Tm: 200 mM NaCl; for Tm / ΔTm/mod.: duplex with single-stranded RNA SEQ ID NO: 11; for Tm: 10 mM phosphate buffer (pH7.0), 2.5 μM each oligonucleotide; for ΔTm/mod.: change per modification vs natural oligonucleotide
Method: as §1, §2

[4] = system: single-stranded RNA:5′-r(ACGAGANCAUCC)-3′, N = C; test: Tm measurement with single-stranded RNA (base sequence identifying ability), N = C; conditions: mismatch RNA N = C; for ΔTm (N = C), in parentheses: difference from N = A; for Tm (N = C): 10 mM sodium phosphate buffer, 200 mM NaCl
Method: as §1, §2

[5] = system: single-stranded RNA:5′-r(ACGAGANCAUCC)-3′, N = U; test: Tm measurement with single-stranded RNA (base sequence identifying ability), N = U; conditions: mismatch RNA N = U; for ΔTm (N = U), in parentheses: difference from N = A; for Tm (N = U): 10 mM sodium phosphate buffer, 200 mM NaCl
Method: as §1, §2

Substance	Tm [1] [°C]	ΔTm (N = G), in parentheses [2]	Tm (N = G) [2] [°C]	Tm (N = A) [3] [°C]	Tm [3] [°C]	ΔTm (N = C), in parentheses [4]	Tm (N = C) [4] [°C]	ΔTm (N = U), in parentheses [5]	Tm (N = U) [5] [°C]	ΔTm/mod. [1]	ΔTm/mod. [3]
5′-GGATGTTCTCGT-3′: unmodified (natural) oligonucleotide, SEQ ID NO: 1 (unmodified DNA)	51	-4 º C.	48	52	52	-14 º C.	38	-12 º C.	40	–	–
5′-GGATGXTCTCGT-3′: modified oligonucleotide with one X modification; X not defined in the visible text (DNA GGATGTTCTCGT; DNA oligonucleotide with modified nucleotide X, X not given here, further chemistry not given here)	53	-5 º C.	53	58	58	-15 º C.	43	-14 º C.	44	+2.0 °C	+6.0 °C
5′-GGATGYTCTCGT-3′: modified oligonucleotide with one Y modification; Y not defined in the visible text (DNA GGATGTTCTCGT; Y modified nucleotide; misc_difference (6)..(6) LNA)	54	-5 º C.	53	58	58	-14 º C.	44	-13 º C.	45	+3.0 °C	+6.0 °C
5′-GGATGZTCTCGT-3′: modified oligonucleotide with one Z modification; Z not defined in the visible text (DNA GGATGTTCTCGT; Z modified nucleotide; misc_difference (6)..(6) ENA)	52	-4 º C.	54	58	58	-15 º C.	43	-13 º C.	45	+1.0 °C	+6.0 °C
